Data from patent US6251944A, “Para-substituted phenylene derivatives” (G. D. Searle & Company, priority 1999, dated 2001).
Counter-ions that a name gives are not always drawn.

Key:
[1] = molecular target: T1, Human vitronectin receptor(αvβ3) (Homo sapiens, UniProt P05106+P06756); assay: Vitronectin adhesion assay (solid phase receptor assay, αvβ3); settings: inhibition of 50% of maximum binding of biotinylated vitronectin; highest concentration tested 1.0×10^-4 M; read-out: AvB3 IC50
T1 construct: purified from human placenta; from tissue; host or cells: human placenta
T1 sequence (P06756 31-889 limits assumed): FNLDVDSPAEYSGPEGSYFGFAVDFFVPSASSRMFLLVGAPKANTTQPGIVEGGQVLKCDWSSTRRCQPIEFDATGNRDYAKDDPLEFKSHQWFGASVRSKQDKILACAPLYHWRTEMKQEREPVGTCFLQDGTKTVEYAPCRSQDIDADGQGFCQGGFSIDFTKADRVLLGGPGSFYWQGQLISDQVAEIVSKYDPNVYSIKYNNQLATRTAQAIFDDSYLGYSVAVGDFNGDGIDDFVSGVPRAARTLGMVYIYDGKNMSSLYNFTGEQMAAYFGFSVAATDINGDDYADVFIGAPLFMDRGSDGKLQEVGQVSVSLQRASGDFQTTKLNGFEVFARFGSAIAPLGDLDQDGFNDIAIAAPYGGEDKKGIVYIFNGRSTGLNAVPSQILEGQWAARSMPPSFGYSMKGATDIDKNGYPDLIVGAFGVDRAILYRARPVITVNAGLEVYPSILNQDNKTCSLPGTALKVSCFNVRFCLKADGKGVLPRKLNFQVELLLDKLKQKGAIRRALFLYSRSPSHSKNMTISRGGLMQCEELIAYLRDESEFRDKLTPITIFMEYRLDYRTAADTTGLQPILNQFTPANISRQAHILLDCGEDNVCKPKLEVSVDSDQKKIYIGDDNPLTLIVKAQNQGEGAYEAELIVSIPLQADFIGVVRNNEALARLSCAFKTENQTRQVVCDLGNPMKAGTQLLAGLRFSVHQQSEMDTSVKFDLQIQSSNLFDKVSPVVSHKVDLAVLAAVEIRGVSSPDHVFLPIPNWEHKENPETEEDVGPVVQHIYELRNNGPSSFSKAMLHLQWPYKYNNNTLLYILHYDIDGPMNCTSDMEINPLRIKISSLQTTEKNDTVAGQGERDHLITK
T1 sequence (P06756 891-1048 limits assumed): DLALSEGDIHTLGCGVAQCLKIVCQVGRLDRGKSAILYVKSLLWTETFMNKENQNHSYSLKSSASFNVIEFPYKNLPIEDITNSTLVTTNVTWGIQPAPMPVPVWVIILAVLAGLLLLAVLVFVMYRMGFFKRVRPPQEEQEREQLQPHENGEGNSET
T1 sequence (P05106 27-788): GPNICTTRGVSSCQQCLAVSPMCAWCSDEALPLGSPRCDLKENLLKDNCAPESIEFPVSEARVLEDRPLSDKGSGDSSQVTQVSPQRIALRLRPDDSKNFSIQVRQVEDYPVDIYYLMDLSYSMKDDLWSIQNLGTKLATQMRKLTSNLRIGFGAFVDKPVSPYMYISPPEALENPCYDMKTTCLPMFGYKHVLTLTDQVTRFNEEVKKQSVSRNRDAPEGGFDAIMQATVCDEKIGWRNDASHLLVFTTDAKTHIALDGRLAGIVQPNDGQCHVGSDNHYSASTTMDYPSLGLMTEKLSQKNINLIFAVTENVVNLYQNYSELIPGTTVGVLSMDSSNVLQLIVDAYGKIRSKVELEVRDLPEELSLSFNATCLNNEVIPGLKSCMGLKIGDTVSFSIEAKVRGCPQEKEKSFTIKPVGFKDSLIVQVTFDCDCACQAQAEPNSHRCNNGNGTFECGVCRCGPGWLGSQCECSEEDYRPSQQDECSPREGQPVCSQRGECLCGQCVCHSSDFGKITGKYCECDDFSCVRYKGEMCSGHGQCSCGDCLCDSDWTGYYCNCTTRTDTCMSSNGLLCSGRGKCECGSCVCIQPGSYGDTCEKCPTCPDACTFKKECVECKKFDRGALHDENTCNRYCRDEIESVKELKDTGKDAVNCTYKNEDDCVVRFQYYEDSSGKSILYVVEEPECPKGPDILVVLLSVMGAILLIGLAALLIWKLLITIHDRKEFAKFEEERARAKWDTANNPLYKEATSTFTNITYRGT
Description: The activity of the compounds of the present invention was tested in the following assays. […] Assay buffer, OPD substrate tablets, and RIA grade BSA were obtained from Sigma (St. Louis, Mo.). Anti-biotin antibody was obtained from Calbiochem (La Jolla, Calif.). Linbro microtiter plates were obtained from Flow Labs (McLean, Va.). ADP reagent was obtained from Sigma (St. Louis, Mo.). […] The purified human vitronectin receptor (αvβ3) was diluted from stock solutions to 1.0 μg/mL in Tris-buffered saline containing 1.0 mM Ca^++, Mg^++, and Mn^++, pH 7.4 (TBS^+++). The diluted receptor was immediately transferred to Linbro microtiter plates at 100 μL/well (100 ng receptor/well). The plates were sealed and incubated overnight at 4° C. to allow the receptor to bind to the wells. All remaining steps were at room temperature. The assay plates were emptied and 200 μL of 1% RIA grade BSA in TBS^+++ (TBS^+++ /BSA) were added to block exposed plastic surfaces. Following a 2 hour incubation, the assay plates were washed with TBS^+++ using a 96 well plate washer. […] The competition occurred for two hours after which all wells were washed with a plate washer as before. […] After 30 minutes, the plates were washed and incubated with OPD/H2 O2 substrate in 100 mM/L Citrate buffer, pH 5.0. […] The data were analyzed using a macro written for use with the EXCEL™ spreadsheet program. The mean, standard deviation, and % CV were determined for duplicate concentrations. The mean A450 values were normalized to the mean of four maximum-binding controls (no competitor added)(B-MAX). The normalized values were subjected to a four parameter curve fit algorithm [Rodbard et al., Int. […] Ser.

[2] = molecular target: T2, Human fibrinogen receptor (αIIbβ3) (Homo sapiens, UniProt P05106+P08514); assay: Purified IIb/IIIa receptor assay (solid phase receptor assay); settings: inhibition of 50% of maximum binding of biotinylated vitronectin; highest concentration tested 1.0×10^-4 M
T2 construct: purified from outdated platelets; from tissue; host or cells: outdated platelets (human)
T2 sequence (P08514 32-887 limits assumed): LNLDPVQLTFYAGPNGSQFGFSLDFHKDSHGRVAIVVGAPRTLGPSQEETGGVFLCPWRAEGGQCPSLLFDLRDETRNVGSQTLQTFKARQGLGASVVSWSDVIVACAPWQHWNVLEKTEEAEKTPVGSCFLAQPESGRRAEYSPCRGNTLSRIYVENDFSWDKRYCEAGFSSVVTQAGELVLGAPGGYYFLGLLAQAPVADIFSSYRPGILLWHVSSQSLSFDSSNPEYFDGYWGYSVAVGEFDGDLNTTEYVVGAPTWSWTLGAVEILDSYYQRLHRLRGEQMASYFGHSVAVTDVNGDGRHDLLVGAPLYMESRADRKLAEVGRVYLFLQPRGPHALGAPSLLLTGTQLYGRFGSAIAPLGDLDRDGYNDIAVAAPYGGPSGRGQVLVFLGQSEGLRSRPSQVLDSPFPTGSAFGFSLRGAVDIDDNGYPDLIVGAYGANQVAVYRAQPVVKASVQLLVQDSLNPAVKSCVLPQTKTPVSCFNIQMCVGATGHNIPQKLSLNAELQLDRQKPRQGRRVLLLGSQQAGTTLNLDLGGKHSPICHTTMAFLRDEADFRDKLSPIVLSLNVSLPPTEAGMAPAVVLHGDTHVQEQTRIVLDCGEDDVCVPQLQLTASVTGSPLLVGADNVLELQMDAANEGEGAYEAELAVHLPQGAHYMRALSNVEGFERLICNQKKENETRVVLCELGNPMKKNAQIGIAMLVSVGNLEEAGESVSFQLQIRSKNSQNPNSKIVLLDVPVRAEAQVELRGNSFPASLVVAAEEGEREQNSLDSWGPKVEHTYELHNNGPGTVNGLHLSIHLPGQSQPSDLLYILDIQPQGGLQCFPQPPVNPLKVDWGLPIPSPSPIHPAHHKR
T2 sequence (P08514 891-1039 limits assumed): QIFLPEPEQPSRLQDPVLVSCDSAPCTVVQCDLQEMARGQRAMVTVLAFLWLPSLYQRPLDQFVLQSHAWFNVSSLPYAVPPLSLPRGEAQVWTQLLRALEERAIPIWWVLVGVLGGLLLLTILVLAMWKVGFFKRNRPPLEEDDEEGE
T2 sequence (P05106 27-788): as the sequence (P05106 27-788) above
Description: The activity of the compounds of the present invention was tested in the following assays.
Human fibrinogen receptor (αIIbβ3) was purified from outdated platelets. […] Biotinylated human vitronectin was prepared by coupling NHS-biotin from Pierce Chemical Company (Rockford, Ill.) to purified vitronectin as previously described. […] Anti-biotin antibody was obtained from Calbiochem (La Jolla, Calif.). Linbro microtiter plates were obtained from Flow Labs (McLean, Va.). ADP reagent was obtained from Sigma (St. Louis, Mo.).
Solid Phase Receptor Assays
The purified human fibrinogen receptor (αIIbβ3) was diluted from stock solutions to 1.0 μg/mL in Tris-buffered saline containing 1.0 mM Ca^++, Mg^++, and Mn^++, pH 7.4 (TBS^+++). The diluted receptor was immediately transferred to Linbro microtiter plates at 100 μL/well (100 ng receptor/well). The plates were sealed and incubated overnight at 4° C. to allow the receptor to bind to the wells. All remaining steps were at room temperature. The assay plates were emptied and 200 μL of 1% RIA grade BSA in TBS^+++ (TBS^+++ /BSA) were added to block exposed plastic surfaces. Following a 2 hour incubation, the assay plates were washed with TBS^+++ using a 96 well plate washer. Logarithmic serial dilution of the test compound and controls were made starting at a stock concentration of 2 mM and using 2 nM biotinylated vitronectin in TBS^+++ /BSA as the diluent. This premixing of labeled ligand with test (or control) ligand, and subsequent transfer of 50 μL aliquots to the assay plate was carried out with a CETUS Propette robot; the final concentration of the labeled ligand was 1 nM and the highest concentration of test compound was 1.0×10^-4 M. The competition occurred for two hours after which all wells were washed with a plate washer as before. Affinity purified horseradish peroxidase labeled goat anti-biotin antibody was diluted 1:3000 in TBS^+++ /BSA and 125 μL were added to each well. After 30 minutes, the plates were washed and incubated with […]/H2 O2 substrate in 100 mM/L citrate buffer, pH 5.0. The plate was read with a microtiter plate reader at a wavelength of 450 nm and when the maximum-binding control wells reached an absorbance of about 1.0, the final A450 were recorded for analysis. The data were analyzed using a macro written for use with the EXCEL™ spreadsheet program. The mean, standard deviation, and % CV were determined for duplicate concentrations. The mean A450 values were normalized to the mean of four maximum-binding controls (no competitor added) (B-MAX). The normalized values were subjected to a four parameter curve fit algorithm, [Robard et al., Int.

CC(C)COC(=O)NC(Cc1ccc(NC(=O)c2cc(NC(=N)N)cc(C(F)(F)F)c2)cc1)C(=O)O (centres unmarked) [Example 2, 4-[[[3-[(aminoiminomethyl)amino]-5-(trifluoromethyl)phenyl]carbonyl]amino]-N-[(2-methylpropoxy)carbonyl]phenylalanine, trifluoroacetate Salt]
IC50 [1]: 0.18 nM
IC50 [2]: 8.08 nM

CCCCS(=O)(=O)NC(Cc1ccc(OCc2cccc(NC(=N)N)c2)cc1)C(=O)O (centres unmarked) [Example 11, O-[[3-[(aminoiminomethyl)amino]-phenyl]methyl]-N-(butylsulfonyl)tyrosine, trifluoroacetate Salt monohydrate]
IC50 [1]: 2.2 nM
IC50 [2]: 4 nM

N=C(N)c1cccc(C(=O)Nc2ccc(CCC(=O)O)cc2)c1 [Example 20, 4-[[[3-(Aminoiminomethyl)phenyl]carbonyl]-amino]benzenepropanoic Acid]
IC50 [1]: > 100000 nM
IC50 [2]: 39900 nM

CC(CC(=O)OC(C)(C)C)c1ccc(NC(=O)c2cccc(NC(=N)N)c2)cc1 (stereo not drawn) [Example 30, 1,1-dimethylethyl 4-[[[3-[(aminoiminomethyl)amino]phenyl]carbonyl]amino]-β-methylbenzenepropanoate, trifluoroacetate Salt]
IC50 [1]: 6370 nM
IC50 [2]: 3260 nM

CC(=O)NC(Cc1ccc(NC(=O)c2cccc(NC(=N)N)c2)cc1)C(=O)O (centres unmarked) [Example 35, N-acetyl-4-[[[3-[(aminoiminomethyl)amino]-phenyl]carbonyl]amino]phenylalanine, trifluoroacetate Salt]
IC50 [1]: 2.69 nM
IC50 [2]: 148 nM

CCOC(=O)C(Cc1ccc(NC(=O)c2cccc(NC(=N)N)c2)cc1)NC(=O)c1ccccc1 (centres unmarked) [Example 36, 4-[[[3-[(aminoiminomethyl)amino]phenyl]-carbonyl]amino]-N-(phenylcarbonyl)phenylalanine Ethyl Ester, monohydrate trifluoroacetate Salt]
IC50 [1]: 1010 nM
IC50 [2]: 10500 nM

CCOC(=O)C(Cc1ccc(NC(=O)c2cccc(NC(=N)N)c2)cc1)NS(C)(=O)=O (centres unmarked) [Example 37, 4-[[[3-[(aminoiminomethyl)amino]phenyl]carbonyl]amino]-N-(methylsulfonyl)phenylalanine Ethyl Ester, monohydrate trifluoroacetate Salt]
IC50 [1]: 97.8 nM
IC50 [2]: 2380 nM

CCOC(=O)NC(Cc1ccc(NC(=O)c2cccc(NC(=N)N)c2)cc1)C(=O)OCC (centres unmarked) [Example 38, 4-[[[3-[(aminoiminomethyl)amino]phenyl]-carbonyl]amino]-N-(ethoxycarbonyl)phenylalanine Ethyl Ester, trifluoroacetate Salt]
IC50 [1]: 106 nM
IC50 [2]: 3360 nM

CCOC(=O)C(Cc1ccc(NC(=O)c2cccc(NC(=N)N)c2)cc1)NS(=O)(=O)c1ccccc1 (centres unmarked) [Example 40, 4-[[[3-[(aminoiminomethyl)amino]phenyl]-carbonyl]amino]-N-(phenylsulfonyl)phenylalanine Ethyl Ester, monohydrate trifluoroacetate Salt]
IC50 [1]: 557 nM
IC50 [2]: 748 nM

COC(=O)[C@H](Cc1ccc(NC(=O)c2cccc(NC(=N)N)c2)cc1)NC(=O)OC(C)(C)C [Example 45, 4-[[[3-[(aminoiminomethyl)amino]phenyl]-carbonyl]amino]-N-[(1,1-dimethylethoxy)carbonyl]-L-phenylalanine, methyl Ester, trifluoroacetate Salt]
IC50 [1]: 39.4 nM
IC50 [2]: 603 nM

CC(C)COC(=O)NC(Cc1ccc(NC(=O)c2cccc(NC(=N)N)c2)cc1)C(=O)O (centres unmarked) [Example 53, 4-[[[3-[(aminoiminomethyl)amino]phenyl]-carbonyl]amino]-N-[(2-methylpropoxy)carbonyl]-phenylalanine, trifluoroacetate Salt]
IC50 [1]: 0.56 nM
IC50 [2]: 15.3 nM

COC(=O)NC(Cc1ccc(NC(=O)c2cccc(NC(=N)N)c2)cc1)C(=O)O (centres unmarked) [Example 54, 4-[[[3-[(aminoiminomethyl)amino]phenyl]carbonyl]amino]-N-(methoxycarbonyl)phenylalanine, trifluoroacetate Salt]
IC50 [1]: 0.77 nM
IC50 [2]: 36.5 nM

N=C(N)Nc1cccc(C(=O)Nc2ccc(C(CC(=O)O)C(=O)O)cc2)c1 (centres unmarked) [Example 69, [4-[[[3-[(aminoiminomethyl)amino]-phenyl]carbonyl]amino]phenyl]butanedioicAcid, trifluoroacetate Salt]
IC50 [1]: 94 nM
IC50 [2]: 37 nM

N=C(N)Nc1cccc(C(=O)Nc2ccc(C(CC(=O)O)C(=O)NCC(=O)O)cc2)c1 (stereo not drawn) [Example 73, 4-[[[3-[(aminoiminomethyl)amino]phenyl]-carbonyl]amino]-beta-[[(carboxymethyl)amino]carbonyl]-benzenepropanoic Acid, trifluoroacetate Salt]
IC50 [1]: 141 nM
IC50 [2]: 40 nM

N=C(N)Nc1cccc(C(=O)Nc2ccc(CCC(=O)O)cc2O)c1 [Example 75, 4-[[[3-[(aminoiminomethyl)amino]phenyl]-carbonyl]amino]-3-hydroxybenzenepropanoic Acid, trifluoroacetate Salt]
IC50 [1]: 14.5 nM
IC50 [2]: 330 nM

N=C(N)Nc1cccc(C(=O)Nc2ccc(OCC(=O)O)cc2)c1 [Example 81, [4-[[[3-[(aminoiminomethyl)amino]phenyl]-carbonyl]amino]phenoxy]acetic Acid, trifluoroacetate Salt]
IC50 [1]: 19.1 nM
IC50 [2]: 129 nM

N=C(N)Nc1cccc(C(=O)Nc2ccc(S(=O)(=O)CC(=O)O)cc2)c1 [Example 83, [[4-[[[3-[(aminoiminomethyl)amino]phenyl]carbonyl]amino]phenyl]sulfonyl]acetic Acid]
IC50 [1]: 1900 nM
IC50 [2]: 474 nM

CCOC(=O)C(Oc1ccc(NC(=O)c2cccc(NC(=N)N)c2)cc1)c1ccccc1 (stereo not drawn) [Example 86C, ethyl α-[4-[[[3-[(aminoiminomethyl)amino]phenyl]carbonyl]amino]phenoxy]benzeneacetate, trifluoroacetate Salt]
IC50 [1]: 56800 nM
IC50 [2]: > 100000 nM

CC(C)OC(=O)NC(Cc1ccc(NC(=O)c2ccc(Cl)c(NC(=N)N)c2)cc1)C(=O)O (centres unmarked) [Example 87, 4[[[3-[(aminoiminomethyl)amino]-4-chlorophenyl]carbonyl]amino]-N-[(1-methylethoxy)carbonyl]phenylalanine]
IC50 [1]: 0.44 nM
IC50 [2]: 85.3 nM

CCOC(=O)CSc1ccc(NC(=O)c2cccc(NC(=N)N)c2)cc1 [Example 90, ethyl[[4-[[(3-[(aminoiminomethyl)amino]phenyl]carbonyl]amino]phenyl]thio]acetic Acid, trifluoroacetate]
IC50 [1]: 23700 nM
IC50 [2]: 34500 nM

N=C(N)Nc1cccc(C(=O)Nc2ccc(CCC(=O)O)c(CCC(=O)O)c2)c1 [Example 100, 4-[[[3-[(aminoiminomethyl)amino]phenyl]carbonyl]amino]benzene-1,2-dipropanoic Acid, trifluoroacetate Salt]
IC50 [1]: 6 nM
IC50 [2]: 44 nM

CC(C)(C)CC(=O)NC(Cc1ccc(NC(=O)c2cccc(NC(=N)N)c2)cc1)C(=O)O (centres unmarked) [Example 109, 4-[[[3-[(aminoiminomethyl)amino]phenyl]carbonyl]amino]-N-(3,3-dimethyl-1-oxobutyl)phenylalanine, trifluoroacetate Salt]
IC50 [1]: 5 nM
IC50 [2]: 111 nM
